Measured values published in the NIST ThermoML archive (doi:10.1016/j.tca.2010.01.019).
± gives the expanded uncertainty stated by the source.

Conditions: Crystal, Calculated from knudsen effusion weight loss

Compound: CC(C)(C)c1ccc2c(c1)-c1nc-2nc2[n-]c(nc3nc(nc4[n-]c(n1)c1ccc(C(C)(C)C)cc41)-c1ccc(C(C)(C)C)cc1-3)c1ccc(C(C)(C)C)cc21.[Cu+2] [copper tetra-4-tert-butylphthalocyanine]
- vapor or sublimation pressure (587 K): 4.737e-06 ± 3.3e-06 kPa
- vapor or sublimation pressure (604 K): 1.852e-05 ± 6.8e-06 kPa
- vapor or sublimation pressure (620 K): 5.892e-05 ± 1.7e-05 kPa
- vapor or sublimation pressure (640 K): 0.0001549 ± 4.1e-05 kPa
- vapor or sublimation pressure (656 K): 0.0004 ± 8.6e-05 kPa
- vapor or sublimation pressure (679 K): 0.0008741 ± 0.00019 kPa
- vapor or sublimation pressure (696 K): 0.002084 ± 0.00039 kPa
